Data from patent US10166253B2, “Positively charged co-polymers for use as antimicrobial agents” (priority 2014, dated 2019).

Key:
S. aureus (Wood 46) = assay: Antimicrobial susceptibility testing (MIC) by the oCelloScope system; type: cell-based, Staphylococcus aureus; conditions: CAMHBT broth, SESA growth curves
Protocol: E. coli (strain NCTC 10418) and S. aureus (Wood 46, NCTC 7121) were grown overnight in Sensititre® cation-adjusted Mueller-Hinton broth with TES (CAMHBT, TREK Diagnostic System). Bacterial cell suspensions were adjusted to 0.5 McFarland standard using a nephelometer. Subsequently, bacteria were diluted in CAMHBT according to the recommended final inoculum size for broth dilution (5×10^5 colony-forming units (CFU) ml^−1) (Wiegand, I., K. Hilpert, and R. E. Hancock, Agar and broth dilution methods to determine the minimal inhibitory concentration (MIC) of antimicrobial substances. Nat Protoc, 2008. 3(2): p. 163-75) and analyzed in Nunc Edge 96-well plates by the oCelloScope system.
The oCelloScope is a digital time-lapse microscopy technology that scans through a fluid sample generating series of images as described in 2013 by Fredborg et al. (Fredborg, M., et al., Real-time optical antimicrobial susceptibility testing. J Clin Microbiol, 2013. 51(7): p. 2047-53). As a result of the tilted imaging plane, the images recorded by the oCelloScope system constitute a parallelepipedum that forms the image stack. […] Growth kinetics was determined by image stack processing based on contrast based Segmentation and Extraction of Surface Area (SESA). […]
The effect of GA on bacterial growth was further evaluated using, an optical screening system (oCelloScope) (FIG. 6). […]

[1] = test system: P. aeruginosa (strain PAO1, ATCC 15692); assay: Colony-forming unit (CFU) counting; type: cell-based, Pseudomonas aeruginosa; conditions: 30 minutes at 37° C. in PBS, in comparison with LL-37
Protocol: Late-log phase E. coli (strain NCTC 10418), P. aeruginosa (strain PAO1, ATCC 15692) and S. aureus (Wood 46, NCTC 7121) were resuspended in PBS and treated with different concentrations of glatiramer acetate (GA) or LL-37 (Innovagen, Lund, Sweden) and incubated on a shaker for 30 minutes at 37° C. Subsequently, a dilution series was performed to achieve a suitable amount of bacteria on the 5% blood agar plates. The 5% blood agar streak plates were cultured at 37° C. for 16 h and the resulting CFUs on the blood agar plates were imaged with a digital camera and counted with the aid of the software ImageJ 1.48v.

[2] = test system: multi-resistant P. aeruginosa strain (CCUG59626); assay: Flow cytometry viability assay on multiresistant strain; type: cell-based, Pseudomonas aeruginosa; conditions: CCUG59626, ~10^8 cells/ml
Protocol: A multi-resistant P. aeruginosa strain (CCUG59626) (˜10^8 cells/ml) was incubated with varying concentrations of GA and LL-37. […] All experiments were performed as four replicates.

With Glatiramer acetate [GA] the MIC (S. aureus (Wood 46)) was 500 mg/L, the “antibacterial effect by CFU counting (in words)” value [1] was “higher antimicrobial activity” and the “susceptibility of multiresistant strain (in words)” value [2] was “highly susceptible”.
